Reference: PubChem BioAssay AID1963977 (Molecular Pharmacology Branch, DTP, NCI, 2024)
pIC50: −log10 of the molar value.

System: 624824-186-R-J3-PDC multicell spheroids, viability
Test: Anticancer human tumor 624824-186-R-J3-PDC patient-derived colon adenocarcinoma cell line growth inhibition [PI3K]
Conditions: for pIC50: curve of first compound; for viability, T/C: stronger effect = lower value; active = viability on the fitted dose curve at most 10% of control; inactive = the rest
Summary of the method: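 We assembled tumor spheroids that included a stromal compartment of HUVEC and MSCs, then exposed them to targeted agents alone and together with PI3K pathway inhibitors. Concentration series descended by half-log from clinically achievable Cmax levels. Viability served as the endpoint.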

[1] = second compound 0.00316 µM, first compound 0.0316 µM
[2] = second compound 0.00316 µM, first compound 0.1 µM
[3] = second compound 0.00316 µM, first compound 0.316 µM
[4] = second compound 0.00316 µM, first compound 1 µM
[5] = second compound 0.00316 µM, first compound 3.16 µM
[6] = second compound 0.00316 µM, first compound 10 µM
[7] = second compound 0.01 µM, first compound 0.0316 µM
[8] = second compound 0.01 µM, first compound 0.1 µM
[9] = second compound 0.01 µM, first compound 0.316 µM
[10] = second compound 0.01 µM, first compound 1 µM
[11] = second compound 0.01 µM, first compound 3.16 µM
[12] = second compound 0.01 µM, first compound 10 µM
[13] = second compound 0.0316 µM, first compound 0.0316 µM
[14] = second compound 0.0316 µM, first compound 0.1 µM
[15] = second compound 0.0316 µM, first compound 0.316 µM
[16] = second compound 0.0316 µM, first compound 1 µM
[17] = second compound 0.0316 µM, first compound 3.16 µM
[18] = second compound 0.0316 µM, first compound 10 µM
[19] = second compound 0.1 µM, first compound 0.0316 µM
[20] = second compound 0.1 µM, first compound 0.1 µM
[21] = second compound 0.1 µM, first compound 0.316 µM
[22] = second compound 0.1 µM, first compound 1 µM
[23] = second compound 0.1 µM, first compound 3.16 µM
[24] = second compound 0.1 µM, first compound 10 µM
[25] = second compound 0.316 µM, first compound 0.0316 µM
[26] = second compound 0.316 µM, first compound 0.1 µM
[27] = second compound 0.316 µM, first compound 0.316 µM
[28] = second compound 0.316 µM, first compound 1 µM
[29] = second compound 0.316 µM, first compound 3.16 µM
[30] = second compound 0.316 µM, first compound 10 µM
[31] = second compound 1 µM, first compound 0.0316 µM
[32] = second compound 1 µM, first compound 0.1 µM
[33] = second compound 1 µM, first compound 0.316 µM
[34] = second compound 1 µM, first compound 1 µM
[35] = second compound 1 µM, first compound 3.16 µM
[36] = second compound 1 µM, first compound 10 µM
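Note: spheroids exposed to agents for seven days before luminescence read.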
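Throughout, for viability, T/C: luminescent signal used as a stand-in for spheroid viability; percent viability relative to DMSO vehicle control wells taken as 100%.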

C#Cc1c(F)ccc2cc(O)cc(-c3ncc4c(N5CC6CCC(C5)N6)nc(OCC56CCCN5CC(F)C6)nc4c3F)c12 (stereo not drawn) + CC(Nc1ccc2c(c1)OCCn1cc(N3C(=O)OCC3C(F)F)nc1-2)C(N)=O
inactive: viability, T/C [1] 106% | viability, T/C [2] 108% | viability, T/C [3] 100% | viability, T/C [4] 108% | viability, T/C [5] 104% | viability, T/C [6] 122% | viability, T/C [7] 109% | viability, T/C [8] 89.9% | viability, T/C [9] 97.1% | viability, T/C [10] 108% | viability, T/C [11] 103% | viability, T/C [12] 101% | viability, T/C [13] 109% | viability, T/C [14] 105% | viability, T/C [15] 107% | viability, T/C [16] 103% | viability, T/C [17] 107% | viability, T/C [18] 106% | viability, T/C [19] 105% | viability, T/C [20] 101% | viability, T/C [21] 108% | viability, T/C [22] 109% | viability, T/C [23] 111% | viability, T/C [24] 103% | viability, T/C [25] 95.9% | viability, T/C [26] 99.7% | viability, T/C [27] 103% | viability, T/C [28] 98% | viability, T/C [29] 104% | viability, T/C [30] 108% | viability, T/C [31] 93.9% | viability, T/C [32] 83.2% | viability, T/C [33] 94.3% | viability, T/C [34] 88.3% | viability, T/C [35] 88.8% | viability, T/C [36] 99.2%
< 5.00: pIC50 (second compound 0.00316 µM) | pIC50 (second compound 0.01 µM) | pIC50 (second compound 0.0316 µM) | pIC50 (second compound 0.1 µM) | pIC50 (second compound 0.316 µM) | pIC50 (second compound 1 µM)

CC1(C)CCC(Nc2ncc(C(F)(F)F)c(-c3c[nH]c4c(P(C)(C)=O)c(C#N)ccc34)n2)CN1 (stereo not drawn) + CC(Nc1ccc2c(c1)OCCn1cc(N3C(=O)OCC3C(F)F)nc1-2)C(N)=O
5.50: pIC50 (second compound 1 µM)
5.34: pIC50 (second compound 0.316 µM)
active: viability, T/C [6] 2.71% | viability, T/C [12] 3.61% | viability, T/C [18] 3.03% | viability, T/C [24] 2.82% | viability, T/C [30] 2.32% | viability, T/C [36] 2.4%
5.29: pIC50 (second compound 0.00316 µM) | pIC50 (second compound 0.01 µM)
inactive: viability, T/C [1] 106% | viability, T/C [2] 90.5% | viability, T/C [3] 89.4% | viability, T/C [4] 89.6% | viability, T/C [5] 85.5% | viability, T/C [7] 104% | viability, T/C [8] 95.6% | viability, T/C [9] 92.7% | viability, T/C [10] 96.3% | viability, T/C [11] 84.2% | viability, T/C [13] 99.4% | viability, T/C [14] 88.7% | viability, T/C [15] 89.4% | viability, T/C [16] 93.5% | viability, T/C [17] 87.8% | viability, T/C [19] 90% | viability, T/C [20] 85.5% | viability, T/C [21] 89.8% | viability, T/C [22] 85.7% | viability, T/C [23] 76.5% | viability, T/C [25] 81.8% | viability, T/C [26] 64.8% | viability, T/C [27] 68.2% | viability, T/C [28] 76.5% | viability, T/C [29] 71.8% | viability, T/C [31] 54.9% | viability, T/C [32] 56.1% | viability, T/C [33] 57% | viability, T/C [34] 53.4% | viability, T/C [35] 50.5%
5.32: pIC50 (second compound 0.1 µM)
5.28: pIC50 (second compound 0.0316 µM)

CNC(=O)c1ccc(N2C(=S)N(c3ccc(C#N)c(C(F)(F)F)c3)C(=O)C2(C)C)cc1F + CC(Nc1ncnc2nc[nH]c12)c1cc2cccc(Cl)c2c(=O)n1-c1ccccc1
< 5.00: pIC50 (second compound 0.0316 µM) | pIC50 (second compound 0.1 µM) | pIC50 (second compound 0.316 µM) | pIC50 (second compound 1 µM) | pIC50 (second compound 3.16 µM) | pIC50 (second compound 10 µM)
inactive: viability, T/C [13] 107% | viability, T/C [14] 102% | viability, T/C [15] 110% | viability, T/C [16] 97.1% | viability, T/C [17] 92.8% | viability, T/C [18] 102% | viability, T/C [19] 97.7% | viability, T/C [20] 101% | viability, T/C [21] 104% | viability, T/C [22] 108% | viability, T/C [23] 106% | viability, T/C [24] 116% | viability, T/C [25] 96.6% | viability, T/C [26] 93.3% | viability, T/C [27] 105% | viability, T/C [28] 94.2% | viability, T/C [29] 105% | viability, T/C [30] 117% | viability, T/C [31] 98.8% | viability, T/C [32] 101% | viability, T/C [33] 107% | viability, T/C [34] 117% | viability, T/C [35] 104% | viability, T/C [36] 101% | viability, T/C (second compound 3.16 µM, first compound 0.0316 µM) 100% | viability, T/C (second compound 3.16 µM, first compound 0.1 µM) 100% | viability, T/C (second compound 3.16 µM, first compound 0.316 µM) 112% | viability, T/C (second compound 3.16 µM, first compound 1 µM) 91.5% | viability, T/C (second compound 3.16 µM, first compound 3.16 µM) 108% | viability, T/C (second compound 3.16 µM, first compound 10 µM) 107% | viability, T/C (second compound 10 µM, first compound 0.0316 µM) 99.1% | viability, T/C (second compound 10 µM, first compound 0.1 µM) 95.2% | viability, T/C (second compound 10 µM, first compound 0.316 µM) 100% | viability, T/C (second compound 10 µM, first compound 1 µM) 88.1% | viability, T/C (second compound 10 µM, first compound 3.16 µM) 93.2% | viability, T/C (second compound 10 µM, first compound 10 µM) 97.9%

Cn1cnc2c(F)c(Nc3ccc(Br)cc3Cl)c(C(=O)NOCCO)cc21 + CC(Nc1ncnc2nc[nH]c12)c1cc2cccc(Cl)c2c(=O)n1-c1ccccc1
6.16: pIC50 (second compound 3.16 µM)
5.81: pIC50 (second compound 0.1 µM)
5.69: pIC50 (second compound 0.0316 µM)
5.89: pIC50 (second compound 1 µM)
6.53: pIC50 (second compound 10 µM)
inactive: viability, T/C (second compound 0.0316 µM, first compound 0.00949 µM) 102% | viability, T/C (second compound 0.0316 µM, first compound 0.03 µM) 87.3% | viability, T/C (second compound 0.0316 µM, first compound 0.0949 µM) 103% | viability, T/C (second compound 0.0316 µM, first compound 0.3 µM) 74.2% | viability, T/C (second compound 0.0316 µM, first compound 0.949 µM) 66.8% | viability, T/C (second compound 0.0316 µM, first compound 3 µM) 42.2% | viability, T/C (second compound 0.1 µM, first compound 0.00949 µM) 96.5% | viability, T/C (second compound 0.1 µM, first compound 0.03 µM) 84.3% | viability, T/C (second compound 0.1 µM, first compound 0.0949 µM) 101% | viability, T/C (second compound 0.1 µM, first compound 0.3 µM) 80.8% | viability, T/C (second compound 0.1 µM, first compound 0.949 µM) 59.8% | viability, T/C (second compound 0.1 µM, first compound 3 µM) 37.6% | viability, T/C (second compound 0.316 µM, first compound 0.00949 µM) 95.8% | viability, T/C (second compound 0.316 µM, first compound 0.03 µM) 98.6% | viability, T/C (second compound 0.316 µM, first compound 0.0949 µM) 81.3% | viability, T/C (second compound 0.316 µM, first compound 0.3 µM) 86.1% | viability, T/C (second compound 0.316 µM, first compound 0.949 µM) 59.2% | viability, T/C (second compound 0.316 µM, first compound 3 µM) 38.6% | viability, T/C (second compound 1 µM, first compound 0.00949 µM) 97.4% | viability, T/C (second compound 1 µM, first compound 0.03 µM) 106% | viability, T/C (second compound 1 µM, first compound 0.0949 µM) 87.7% | viability, T/C (second compound 1 µM, first compound 0.3 µM) 80.3% | viability, T/C (second compound 1 µM, first compound 0.949 µM) 56.4% | viability, T/C (second compound 1 µM, first compound 3 µM) 31.5% | viability, T/C (second compound 3.16 µM, first compound 0.00949 µM) 91% | viability, T/C (second compound 3.16 µM, first compound 0.03 µM) 91.3% | viability, T/C (second compound 3.16 µM, first compound 0.0949 µM) 80.7% | viability, T/C (second compound 3.16 µM, first compound 0.3 µM) 67.2% | viability, T/C (second compound 3.16 µM, first compound 0.949 µM) 43.2% | viability, T/C (second compound 3.16 µM, first compound 3 µM) 27.4% | viability, T/C (second compound 10 µM, first compound 0.00949 µM) 101% | viability, T/C (second compound 10 µM, first compound 0.03 µM) 80.6% | viability, T/C (second compound 10 µM, first compound 0.0949 µM) 74.3% | viability, T/C (second compound 10 µM, first compound 0.3 µM) 47.4% | viability, T/C (second compound 10 µM, first compound 0.949 µM) 31.7% | viability, T/C (second compound 10 µM, first compound 3 µM) 18.1%
5.77: pIC50 (second compound 0.316 µM)
